Biological target: T1, SIRT1 (Homo sapiens, UniProt Q96EB6)
T1 sequence (Q96EB6 1-747): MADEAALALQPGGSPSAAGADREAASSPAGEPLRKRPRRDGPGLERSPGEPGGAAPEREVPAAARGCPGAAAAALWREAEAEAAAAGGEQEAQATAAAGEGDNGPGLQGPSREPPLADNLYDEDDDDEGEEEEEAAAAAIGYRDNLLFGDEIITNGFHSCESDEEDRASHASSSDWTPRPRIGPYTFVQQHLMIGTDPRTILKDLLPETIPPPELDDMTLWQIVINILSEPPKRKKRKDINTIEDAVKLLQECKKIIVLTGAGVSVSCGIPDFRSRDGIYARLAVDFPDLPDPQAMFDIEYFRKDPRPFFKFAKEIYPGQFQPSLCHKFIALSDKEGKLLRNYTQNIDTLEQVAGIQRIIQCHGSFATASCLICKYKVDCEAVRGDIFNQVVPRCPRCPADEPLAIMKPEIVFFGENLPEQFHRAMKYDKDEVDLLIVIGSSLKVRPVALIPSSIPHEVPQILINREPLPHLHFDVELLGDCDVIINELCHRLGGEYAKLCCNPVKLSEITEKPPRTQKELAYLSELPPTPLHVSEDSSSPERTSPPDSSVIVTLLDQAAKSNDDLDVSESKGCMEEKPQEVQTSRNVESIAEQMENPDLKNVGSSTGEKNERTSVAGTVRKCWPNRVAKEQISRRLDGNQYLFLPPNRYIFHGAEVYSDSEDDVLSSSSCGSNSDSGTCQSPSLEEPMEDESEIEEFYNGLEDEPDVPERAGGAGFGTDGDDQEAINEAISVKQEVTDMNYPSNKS
Experiment: Fluorescence polarization or mass spectrometry based assay to identify modulators of SIRT1 activity;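 note: deacetylation of a fluorophore-tagged p53-derived acetyl peptide by SIRT1, detected as fluorescence polarization after trypsin cleavage and streptavidin binding, compounds tested at 11 doses from 0.7 to 100 µM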
Format: biochemical
Conditions: activation of SIRT1 (Table 3); read-out: ED50 (the source's name)

| EC50 [µM] | SMILES |
| --- | --- |
| 101 to 150 | Cc1[nH]c2ccccc2c1/C=C(\C#N)c1nc2ccccc2[nH]1 [Compound 1] |
| > 150 | O=C(Nc1cccc(-c2nc3ccccc3[nH]2)c1)c1cccnc1 [Compound 3] |
| 51 to 100 | Nc1ccc(C(=O)Nc2ccc3[nH]c(-c4ccccc4)nc3c2)cc1 [Compound 4] |
| < 50 | Cc1csc(NC(=O)c2ccccc2C(=O)O)c1-c1nc2ccccc2s1 [Compound 6] |
| 101 to 150 | COc1ccccc1NC(=O)Nc1nn(C)c2cccc(OC)c12 [Compound 7] |
| > 150 | COc1cccc2c1c(NC(=O)c1cc3ccccc3s1)nn2C [Compound 8] |
| < 50 | N#C/C(=C\c1ccc(-c2ccc(C(=O)O)cc2)o1)c1nc2ccccc2[nH]1 [Compound 9] |
| < 50 | COc1ccc2nc3s/c(=C\c4ccc(-c5ccc(Cl)c(C(=O)O)c5)o4)c(=O)n3c2c1 [Compound 10] |
| 51 to 100 | COc1cc(C(=O)Nc2cccc(-c3nc4ccccc4[nH]3)c2)cc(OC)c1OC [Compound 11] |
| 51 to 100 | N#CC(C(=O)c1cc2ccccc2o1)c1nc2ccccc2s1 (stereo not drawn) [Compound 12] |
| 101 to 150 | N#Cc1cc(Oc2nc3ccccc3s2)c(N2CCOCC2)cc1C#N [Compound 13] |
| 51 to 100 | Nc1ccc2nc(-c3ccc(-c4nc5ccc(N)cc5[nH]4)cc3)[nH]c2c1 [Compound 15] |
| 51 to 100 | Nc1ccc2[nH]c(-c3cccc(-c4nc5cc(N)ccc5[nH]4)c3)nc2c1 [Compound 16] |
| > 150 | Cc1[nH]c2ccccc2c1/C=C/c1nc2ccccc2c(=O)[nH]1 [Compound 17] |
| 51 to 100 | Nc1ccc2[nH]c(/C=C/c3nc4cc(N)ccc4[nH]3)nc2c1 [Compound 18] |
| 101 to 150 | Cc1ccsc1/C=C(\C#N)c1nc2ccccc2[nH]1 [Compound 19] |
| 101 to 150 | COC(=O)c1[nH]c2cc(OC)c(OC)cc2c1NC(=O)c1cccs1 [Compound 20] |

| EC50 [µM] | SMILES |
| --- | --- |
| 51 to 100 | O=C(Nc1c(C(=O)O)[nH]c2ccc(Br)cc12)c1ccc(F)cc1 [Compound 21] |
| > 150 | COC(=O)c1[nH]c2cc(OC)c(OC)cc2c1NC(=O)c1cccc(OC)c1 [Compound 22] |
| > 150 | COc1cccc(C(=O)Nc2cccc(-c3cn4ccccc4n3)c2)c1 [Compound 23] |
| 101 to 150 | COc1cc(/C=C(\C#N)c2nc3ccccc3[nH]2)cc(OC)c1OC [Compound 24] |
| 51 to 100 | O=C(Nc1cccc(-c2nc3ccccc3[nH]2)c1)c1ccco1 [Compound 25] |
| 101 to 150 | Cc1cccc(-c2nc3c(C(=O)NC4CCC(N)CC4)cccn3c2NCc2ccccc2)c1 (stereo not drawn) [Compound 26] |
| 51 to 100 | CC(=O)Nc1ccc(-c2nc3c(C(=O)NC4CCC(N)CC4)cccn3c2NC2CCCCC2)cc1 (stereo not drawn) [Compound 27] |
| 101 to 150 | CCCCNc1c(-c2ccc(OC)c([N+](=O)[O-])c2)nc2c(C(=O)NC(CC(=O)O)C3CCCCC3)cccn12 (stereo not drawn) [Compound 28] |
| > 150 | COc1ccc(-c2nc3c(C(=O)NC(CC(=O)O)C4CCCCC4)cccn3c2NCc2ccccc2)cc1[N+](=O)[O-] (stereo not drawn) [Compound 31] |
| 101 to 150 | CCCCNc1c(-c2ccc(OC)c([N+](=O)[O-])c2)nc2c(C(=O)NCCCN)cccn12 [Compound 33] |
| 101 to 150 | COc1ccc(-c2nc3c(C(=O)NCCCN)cccn3c2NCc2ccccc2)cc1[N+](=O)[O-] [Compound 34] |
| 51 to 100 | CC(=O)Nc1ccc(-c2nc3c(C(=O)NCc4cccc(CN)c4)cccn3c2NCc2ccccc2)cc1 [Compound 35] |
| 101 to 150 | CC(=O)Nc1ccc(-c2nc3c(C(=O)NC(CC(=O)O)C4CCCCC4)cccn3c2NC(C)(C)C)cc1 (stereo not drawn) [Compound 36] |
| > 150 | O=C(O)CC(NC(=O)c1cccn2c(NCc3ccccc3)c(-c3ccc4ccccc4c3)nc12)C1CCCCC1 (stereo not drawn) [Compound 38] |
| 101 to 150 | COc1ccc(-c2nc3cc(C(=O)NC(CC(=O)O)c4ccc(C)cc4)ccn3c2NC2CCCCC2)cc1OC (stereo not drawn) [Compound 39] |
| 101 to 150 | COc1ccc(-c2nc3cc(C(=O)NCc4cccc(CN)c4)ccn3c2NC2CCCCC2)cc1[N+](=O)[O-] [Compound 40] |

— patent US7998974B2, “Fused heterocyclic compounds and their use as sirtuin modulators” (Sirtris Pharmaceuticals, Inc., priority 2005, dated 2011)
